From patent US5817455A, “Method for in vitro inactivation of RNase S” (Novagen, Inc., priority 1996, dated 1998)
pKd: −log10 of the molar value.

Experiments:
[1] = system: Ribonuclease S; assay: Ribonuclease S activity, degradation of yeast polymeric RNA (absorbance at 255 nm); format: biochemical, bovine; conditions: for effect on RNase S activity (in words): consecutive addition to S-protein + bS15 reaction mix; for Activity: initial velocity relative to S-protein (50 ng) plus S15 (10 μg) = 100%, consecutive addition of S-protein (50 ng), bS15 (approx. 5 μg), streptavidin (10 μg), S15 (5 μg), 75 ug/mL yeast RNA, pH 7.0, 25° C., 2 minutes
Procedure: Ribonuclease S activity was measured in terms of degradation of yeast polymeric RNA. Degradation was monitored as an increase in absorbance at 255 nm of the reaction cocktail. The reaction cocktail included 50 mM imidazole.HCl buffer, pH 7.0, 0.1 M NaCl, and 75 ug/mL yeast RNA, in a volume of 800 uL. The change in absorbance was monitored at 25° C. for 2 minutes following the consecutive addition of S-protein (50 ng), bS15 (approx. 5 μg), streptavidin (10 μg), and authentic S15 (5 μg).
For comparison, the degradative activity in a reaction mix containing S-protein (50 ng) plus S15 (10 μg) is defined to be 100%. […] The initial velocity of each reaction was determined from the initial slope of a plot of absorbance v. time.

[2] = system: S-protein; conditions: cited from earlier work

Substance	effect on RNase S activity (in words) [1]	Activity [1] [%]	binding to S-protein compared with intact S-peptide ([2]; truncated S-peptide, first 15 residues)	pKd ([2]; S-peptide and S-protein, read-out: dissociation constant)
S15: truncated S-peptide formed from the first 15 residues of the S-peptide, SEQ ID NO:1 (KETAAAKFERQHMDS)	RNase S activity could be reconstituted	40	binds equally well	–
S-peptide: residues 1-20 of RNase A, subtilisin cleavage product	–	–	–	9.00
streptavidin	sufficient to inactivate RNase S	< 0.01	–	–
